The target in assay [1] is T1, Carbonic anhydrase 1 (Homo sapiens, UniProt P00915). The assay is described as follows: Inhibition of esterase-activity of CA1 from human erythrocytes by spectrophotometry.
Assay [2] addresses T2, Carbonic anhydrase 2 (Homo sapiens, UniProt P00918). The assay is described as follows: Inhibition of esterase-activity of human erythrocytes CA2 by spectrophotometry.
Assay [3] has as its target T1, Carbonic anhydrase 1. The assay is described as follows: Inhibition of CA1 from human erythrocytes by Lineweaver-Burke analysis.
For assay [4], the target named is T2, Carbonic anhydrase 2. Put plainly: Inhibition of human erythrocytes CA2 by Lineweaver-Burke analysis.
Assay [5] addresses T1, Carbonic anhydrase 1. The assay is described as follows: Inhibition of hydratase-activity of CA1 from human erythrocytes by CO2-hydration method.
Assay [6] addresses T2, Carbonic anhydrase 2. The assay is described as follows: Inhibition of hydratase-activity of human erythrocytes CA2 by CO2-hydration method.

T1 sequence (P00915 whole entry): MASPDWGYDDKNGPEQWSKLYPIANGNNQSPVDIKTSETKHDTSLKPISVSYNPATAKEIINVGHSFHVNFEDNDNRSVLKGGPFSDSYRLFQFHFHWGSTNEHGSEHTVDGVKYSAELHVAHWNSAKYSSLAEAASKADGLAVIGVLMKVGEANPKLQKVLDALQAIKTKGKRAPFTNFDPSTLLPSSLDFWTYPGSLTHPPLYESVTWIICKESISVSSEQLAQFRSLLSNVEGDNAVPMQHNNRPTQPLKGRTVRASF

The IC50 is the concentration needed to halve the response being measured. Regarding `NCc1ccccn1`, the IC50 result against Carbonic anhydrase 1 [1], against Carbonic anhydrase 2 [2], against Carbonic anhydrase 1 [3], against Carbonic anhydrase 2 [4], on Carbonic anhydrase 1 [5] and against Carbonic anhydrase 2 [6] was “Not Active” throughout.
Regarding `NCc1ccccn1.NS(=O)(=O)c1cc(C(=O)O)c(Cl)cc1Cl`, the IC50 at Carbonic anhydrase 1 [1] (read-out: IC50) was 320 nM; on Carbonic anhydrase 2 [2] (read-out: IC50) it was 290 nM; on Carbonic anhydrase 1 [3] (read-out: IC50), 250 nM; on Carbonic anhydrase 2 [4] (read-out: IC50), 220 nM; at Carbonic anhydrase 1 [5] (read-out: IC50), 260 nM; on Carbonic anhydrase 2 [6] (read-out: IC50) it was 300 nM.
On to `NS(=O)(=O)c1cc(C(=O)O)c(Cl)cc1Cl`, for which the IC50 at Carbonic anhydrase 1 [1] (read-out: IC50) was 3200 nM; at Carbonic anhydrase 2 [2] (read-out: IC50) it was 18000 nM; at Carbonic anhydrase 1 [3] (read-out: IC50), 7700 nM; on Carbonic anhydrase 2 [4] (read-out: IC50), 22000 nM; on Carbonic anhydrase 1 [5] (read-out: IC50) it was 430 nM; at Carbonic anhydrase 2 [6] (read-out: IC50), 380 nM.

(Values after ChEMBL document CHEMBL1157726, “Synthesis, characterization and antiglaucoma activity of a novel proton transfer compound and a mixed-ligand Zn(II) complex” (Bioorg Med Chem, 2010).)
